Source: patent US7335770B2, “Triazine compounds and their analogs, compositions, and methods” (Reddy U5 Therapeutics, Inc., priority 2004, dated 2008)

What follows are compounds tested on smooth muscle cells (SMC) (assay: anti-proliferation assay (perlecan)). Settings: anti-proliferation assay (perlecan), class of IC50; read-out: Activity (note 1).
Type: cell-based
Method: The activity scale used in Table 3 as follows (numbers are inclusive): “+++” represents IC50 of less than about 3 μM; “++” represents IC50 of between about 3 and about 7 μM; and “+” represents IC50 of greater than about 7 μM. In addition, compounds, to include compositions thereof, encompassed within the scope of structures Ia-XXIVa, respectively, or listed in Tables 1A and 1E may be likewise employed in this embodiment and/or aspect of the present invention. Further, any hydrogen atoms that are required for any atom to attain its usual valence in a structure presented in Table 3, whether a carbon atom or a heteroatom, should be inferred if it is not specifically indicated.
In addition to the above compounds, the following compounds and compositions comprising these compounds are active in an anti-proliferation assay (Perlecan). These compounds and compositions comprising these compounds are, among other things, generally useful for treating cardiovascular disorders associated with proliferative activity. Specifically, these compounds include N^2-cycloheptyl-N^4-(3-fluoro-4-methoxyphenyl)-N^6-methyl-N^6-(1-methyl-piperidin-4-yl)-1,3,5-triazine-2,4,6-triamine, and N^2-cycloheptyl-N^4-methyl-N^4-(1-methyl-piperidin-4-yl)-N^6-naphthalen-2-yl-1,3,5-triazine-2,4,6-triamine.
Methods for identifying the activity and screening for one or more of these compounds or molecules that induce synthesis of proteoglycans such as HSPG (heparan sulfate proteoglycan) are taught in U.S. patent application Ser. No. 10/091,357, which is incorporated herein in its entirety. Assays of effects of compounds in vivo are also taught in the incorporated references and are known to those skilled in the art. In general, methods comprise the addition of such compounds to assays and measurement of HSPG synthesis including, but not limited to, the production of syndecans, glypicans and perlecans, for example, syndecans 1, 2 and 4; and glypican-1. Other assays that can be used to determine the activity of the compounds of the present invention include other methods for measuring the induction of perlecan synthesis. For example, in one assay, perlecan is induced in cells by certain inducers, and the response is measured. Compounds of the present invention are then added to a replicate assay and the effect on perlecan induction is determined. Using such methods, compounds are determined that can either inhibit perlecan, elevate induction of perlecan, or that have no effect at all. Those compounds that are effective as therapeutic agents can then be used in animals, humans or patients with cellular proliferation disease aspects, such as vascular-associated diseases or SMC proliferation pathologies.
Another assay for determining compounds having SMC effects comprises adding a composition suspected of affecting SMC proliferation to smooth muscle cells in growth medium or serum-free medium. The change in cell proliferation can be measured by methods known to those skilled in the art, such as incorporation of labeled nucleotides into dividing cells' DNA, and compared to the proliferation of cells which are not treated with the compound. Other measurements include directly determining levels of HSPG synthesis by measuring the amount or change in amount of HSPG such as with ELISA for HSPGs, and compared to the amount of HSPG synthesis in untreated cells. Other indirect or direct measurement are contemplated by the present invention and are known to those skilled in the art. For example, such methods include, but are not limited to, measurement of RNA levels, RT-PCR, Northern blotting, Western blotting promoter-based assays to identify compounds that affect one or more proteoglycans and assays for proteoglycan biological activity shown by recombinant proteins, partially purified proteins, or lysates from cells expressing proteoglycans in the presence or absence of compounds of interest.

SMILES	IC50
CCN1CCCC1CNc1nc(Cl)nc(Nc2ccc(OC)c(F)c2)n1 (stereo not drawn) [6-Chloro-N-(1-ethyl-pyrrolidin-2-yl-methyl)-N′-(3-fluoro-4-meth-oxy-phenyl)-[1,3,5]triazine-2,4-di-amine]	3 to 7 µM
Clc1nc(Cl)nc(NC2CCCCCC2)n1 [Cycloheptyl-(4,6-dichloro-[1,3,5]tri-azin-2-yl)-amine]	3 to 7 µM

Same assay, conditions: anti-proliferation assay (perlecan); some cells print no unit; read-out: Avg IC-50

SMILES	IC50
CCN1CCCC1CNc1nc(Cl)nc(Nc2ccc(OC)c(F)c2)n1 (stereo not drawn) [6-Chloro-N-(1-ethyl-pyrrolidin-2-yl-methyl)-N′-(3-fluoro-4-meth-oxy-phenyl)-[1,3,5]triazine-2,4-di-amine]	6.5 µM
Clc1nc(Cl)nc(NC2CCCCCC2)n1 [Cycloheptyl-(4,6-dichloro-[1,3,5]tri-azin-2-yl)-amine]	3.75 µM

Same assay, conditions: using the same activity scale used in Table 3

SMILES	activity in anti-proliferation assay (Perlecan), in words
CCN1CCCC1CNc1nc(NC2CCCCCC2)nc(NC2CCC(O)CC2)n1 (stereo not drawn) [4-{4-Cycloheptylamino-6-[(1-ethyl-pyrrolidin-2-ylmethyl)-amino]-[1,3,5]triazin-2-ylamino}-cyclohexanol]	high activity
COc1ccc(Nc2nc(NC3CCCCCC3)nc(Oc3ccc(C#CC(C)(C)O)cc3)n2)cc1Cl [4-{4-[4-(3-Chloro-4-methoxy-phenylamino)-6-cycloheptylamino-[1,3,5]triazin-2-yloxy]-phenyl}-2-methyl-but-3-yn-2-ol]	high activity
COc1ccc(Nc2nc(NC(C)C)nc(Oc3ccc(C#CC(C)(C)O)cc3)n2)cc1Cl [4-{4-[4-(3-Chloro-4-methoxy-phenylamino)-6-isopropylamino-[1,3,5]triazin-2-yloxy]-phenyl}-2-methyl-but-3-yn-2-ol]	high activity
COc1ccc(Nc2nc(NNC(=O)CCCCC3SCC4NC(=O)NC43)nc(NC3CCCCCC3)n2)cc1Cl (stereo not drawn) [5-(2-Oxo-hexahydro-thieno[3,4-d]imidazol-4-yl)-pentanoic acid N′-[4-(3-chloro-4-methoxy-phenylamino)-6-cycloheptylamino-[1,3,5]triazin-2-yl]-hydrazide]	high activity
COc1ccc(Nc2nc(NCCCCCNC(=O)CCCCC3SCC4NC(=O)NC43)nc(NC3CCCCCC3)n2)cc1Cl (stereo not drawn) [5-(2-Oxo-hexahydro-thieno[3,4-d]imidazol-4-yl)-pentanoic acid {5-[4-(3-chloro-4-methoxy-phenylamino)-6-cycloheptylamino-[1,3,5]triazin-2-ylamino]-pentyl}-amide]	high activity
COc1ccc(Nc2nc(NC3CCCCCC3)nc(Sc3ccccc3C(C)(C)C)n2)cc1Cl [6-(2-tert-Butyl-phenylsulfanyl)-N-(3-chloro-4-methoxy-phenyl)-N′-cycloheptyl-[1,3,5]triazine-2,4-diamine]	high activity
COc1ccc(Nc2nc(NCCN)nc(NC3CCCCCC3)n2)cc1Cl [N-(2-Amino-ethyl)-N′-(3-chloro-4-methoxy-phenyl)-N″-cycloheptyl-[1,3,5]triazine-2,4,6-triamine]	high activity
CCN1CCCC(Oc2nc(Nc3ccc(OC)c(Cl)c3)nc(NC3CCCCCC3)n2)C1 (stereo not drawn) [N-(3-Chloro-4-methoxy-phenyl)-N′-cycloheptyl-6-(1-ethyl-piperidin-3-yloxy)-[1,3,5]triazine-2,4-diamine]	high activity
COc1ccc(Nc2nc(NC3CCCCCC3)nc(OC3CCN(C)CC3)n2)cc1Cl [N-(3-Chloro-4-methoxy-phenyl)-N′-cycloheptyl-6-(1-methyl-piperidin-4-yloxy)-[1,3,5]triazine-2,4-diamine]	high activity
COc1ccc(Nc2nc(NC3CCCCCC3)nc(OCC3CCCN3C)n2)cc1Cl (stereo not drawn) [N-(3-Chloro-4-methoxy-phenyl)-N′-cycloheptyl-6-(1-methyl-pyrrolidin-2-ylmethoxy)-[1,3,5]triazine-2,4-diamine]	high activity
COc1cc(OC)c(-c2nc(Nc3ccc(OC)c(Cl)c3)nc(NC3CCCCCC3)n2)c(OC)c1 [N-(3-Chloro-4-methoxy-phenyl)-N′-cycloheptyl-6-(2,4,6-trimethoxy-phenyl)-[1,3,5]triazine-2,4-diamine]	high activity
COc1ccc(-c2nc(Nc3ccc(OC)c(Cl)c3)nc(NC3CCCCCC3)n2)c(OC)c1 [N-(3-Chloro-4-methoxy-phenyl)-N′-cycloheptyl-6-(2,4-dimethoxy-phenyl)-[1,3,5]triazine-2,4-diamine]	high activity
COc1ccc(Nc2nc(NC3CCCCCC3)nc(Sc3c(Cl)cccc3Cl)n2)cc1Cl [N-(3-Chloro-4-methoxy-phenyl)-N′-cycloheptyl-6-(2,6-dichloro-phenylsulfanyl)-[1,3,5]triazine-2,4-diamine]	high activity
COc1ccc(Nc2nc(NC3CCCCCC3)nc(Oc3ccccc3F)n2)cc1Cl [N-(3-Chloro-4-methoxy-phenyl)-N′-cycloheptyl-6-(2-fluoro-phenoxy)-[1,3,5]triazine-2,4-diamine]	high activity
COc1ccc(Nc2nc(NC3CCCCCC3)nc(Oc3ccccc3I)n2)cc1Cl [N-(3-Chloro-4-methoxy-phenyl)-N′-cycloheptyl-6-(2-iodo-phenoxy)-[1,3,5]triazine-2,4-diamine]	high activity
COc1ccc(Nc2nc(NC3CCCCCC3)nc(Sc3ccccc3OC)n2)cc1Cl [N-(3-Chloro-4-methoxy-phenyl)-N′-cycloheptyl-6-(2-methoxy-phenylsulfanyl)-[1,3,5]triazine-2,4-diamine]	high activity
COc1ccc(Nc2nc(NC3CCCCCC3)nc(Sc3ccc(F)cc3)n2)cc1Cl [N-(3-Chloro-4-methoxy-phenyl)-N′-cycloheptyl-6-(4-fluoro-phenylsulfanyl)-[1,3,5]triazine-2,4-diamine]	high activity
COc1ccc(Nc2nc(NC3CCCCCC3)nc(Oc3ccc(I)cc3)n2)cc1Cl [N-(3-Chloro-4-methoxy-phenyl)-N′-cycloheptyl-6-(4-iodo-phenoxy)-[1,3,5]triazine-2,4-diamine]	high activity
COc1ccc(Nc2nc(NC3CCCCCC3)nc(Oc3cccc(C)n3)n2)cc1Cl [N-(3-Chloro-4-methoxy-phenyl)-N′-cycloheptyl-6-(6-methyl-pyridin-2-yloxy)-[1,3,5]triazine-2,4-diamine]	high activity
COc1ccc(Nc2nc(NC3CCCCCC3)nc(Oc3cccnc3)n2)cc1Cl [N-(3-Chloro-4-methoxy-phenyl)-N′-cycloheptyl-6-(pyridin-3-yloxy)-[1,3,5]triazine-2,4-diamine]	high activity
COc1ccc(Nc2nc(NC3CCCCCC3)nc(OCC3CCCO3)n2)cc1Cl (stereo not drawn) [N-(3-Chloro-4-methoxy-phenyl)-N′-cycloheptyl-6-(tetrahydro-furan-2-ylmethoxy)-[1,3,5]triazine-2,4-diamine]	high activity
COc1ccc(Nc2nc(NC3CCCCCC3)nc(OCCOc3ccccc3F)n2)cc1Cl [N-(3-Chloro-4-methoxy-phenyl)-N′-cycloheptyl-6-[2-(2-fluoro-phenoxy)-ethoxy]-[1,3,5]triazine-2,4-diamine]	high activity
COc1ccc(Nc2nc(NC3CCCCCC3)nc(OC(C)C)n2)cc1Cl [N-(3-Chloro-4-methoxy-phenyl)-N′-cycloheptyl-6-isopropoxy-[1,3,5]triazine-2,4-diamine]	high activity
